Reference: PubChem BioAssay (NCI)
Several values for one entry are separate records, joined by “and”; a condition that tells them apart may be missing. Equal values may be shown once.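 Growth conditions: 96-well plates. Treatment: test compound, 48 hours, 5 concentrations. Analysis: linear interpolation between bracketing concentrations; unreached endpoints set to highest concentration. Here, GI50 denotes the concentration required for 50% inhibition of growth. At the TGI there is no net growth.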

Key:
Assay in all cases: DTP human tumour cell line panel, 48 h
[1] = test system: NCI-H460 lung
[2] = test system: COLO 205 colon
[3] = test system: SK-OV-3 ovarian
[4] = test system: HOP-92 NSCLC
[5] = test system: MDA-MB-231 breast
[6] = test system: SF-295 CNS
[7] = test system: DU-145 prostate
[8] = test system: HS 578T breast
[9] = test system: UACC-257 melanoma
[10] = test system: HT29 colon

Compound	TGI [1]	TGI [2]	TGI [3]	TGI [4]	TGI [5]	TGI [6]	TGI [7]	TGI [8]	TGI [9]	TGI [10]	GI50 [1]	GI50 [2]	GI50 [3]	GI50 [4]	GI50 [5]	GI50 [6]	GI50 [7]	GI50 [8]	GI50 [9]	GI50 [10]
CC(=O)C1(N=Nc2ccc(S(N)(=O)=O)cc2)CCOC1=O (centres undefined)	> 100 µM	> 100 µM	> 100 µM	> 100 µM	> 100 µM	> 100 µM	> 100 µM	> 100 µM	> 100 µM	> 100 µM	–	–	–	–	–	–	–	–	–	–
CN(C)CCCNC(=O)c1cncnc1Nc1ccc(OCc2cccc(F)c2)c(Cl)c1	3.13 µM	3.57 µM	3.23 µM	3.16 µM	3.14 µM	3.1 µM	3.2 µM	3.3 µM	3.83 µM	3.34 µM	1.71 µM	1.79 µM	1.72 µM	1.33 µM	1.69 µM	1.7 µM	1.76 µM	1.56 µM	1.89 µM	1.71 µM
COc1cnc2c(c1)C(=O)c1c-2n(CCCNC(C)C)c(=O)c2cc(F)ccc12	0.175 µM	0.643 µM	0.707 µM	2.54 µM	1.57 µM	0.549 µM	1.04 µM	5.22 µM	2.07 µM	0.33 µM	0.042 µM	0.0905 µM	0.22 µM	0.284 µM	0.402 µM	0.0943 µM	0.21 µM	0.754 µM	0.47 µM	0.0731 µM
O=c1c2ccccc2c2ccccc2c(=O)n1Cc1ccc2c(c1)OCO2	> 100 µM	> 100 µM	> 100 µM	> 100 µM	> 100 µM	> 100 µM	> 100 µM	> 100 µM	> 100 µM	> 100 µM	–	–	–	–	–	–	–	–	–	–
COc1cc(-c2nn(-c3cccc(NC(=O)c4ccc(N5CCOCC5)c(C(F)(F)F)c4)c3)cc2-c2ccncc2)ccc1Cl	> 20.4 µM	1.69 µM	5.34 µM	0.952 µM	3.54 µM	1.15 µM	> 39.3 µM	–	6.86 µM	2.19 µM	0.299 µM	0.446 µM	0.345 µM	0.128 µM	0.384 µM	0.15 µM	0.379 µM	0.257 µM	0.496 µM	0.466 µM
CCCCCCCCCCCCCCCCOP(=O)(O)OP(=O)(O)OCC1OC(n2ccc(N)nc2=O)C(O)C1O (centres undefined)	> 100 µM	> 100 µM	> 100 µM	> 100 µM	> 100 µM	> 100 µM	> 100 µM	> 100 µM	> 100 µM	> 100 µM	–	–	> 100 µM and 48.7 µM	–	–	> 100 µM and 46 µM	–	–	–	–
COC(=O)/C=C/c1cn(C(C)=O)c2ccc(Br)cc12	> 100 µM	> 85 µM	> 100 µM	> 60.7 µM	29.5 µM	40.1 µM	> 100 µM	76.2 µM	> 100 µM	> 100 µM	34.6 µM	24.8 µM	32.4 µM	14.7 µM	11.8 µM	16.1 µM	32.5 µM	22 µM	35.6 µM	27.5 µM
COc1ccc(-c2c(-c3cc(OC)c(OC)c(OC)c3)noc2N)cc1	> 33.8 µM	0.0551 µM	16.5 µM	> 100 µM	90.1 µM	> 100 µM	1.32 µM	> 75.9 µM	> 100 µM	0.796 µM	< 0.015 µM	< 0.0123 µM	< 0.011 µM	< 0.01 µM	0.06 µM	< 0.01 µM	0.0187 µM	< 0.0104 µM	< 0.01 µM	< 0.0144 µM
C=CN(C)S(C)(=O)=O	> 100 µM	> 100 µM	> 100 µM	> 100 µM	> 100 µM	> 100 µM	> 100 µM	> 100 µM	> 100 µM	> 100 µM	> 100 µM	> 100 µM	> 100 µM	> 100 µM	> 100 µM	> 100 µM	> 100 µM	> 100 µM	> 100 µM	> 100 µM
CC1=C([Te]c2ccc(O)cc2)C(=O)c2ccccc2C1=O	1.62 µM	1.4 µM	4.52 µM	2.75 µM	5.4 µM	1.98 µM	6.02 µM	7.6 µM	10.4 µM	1.55 µM	0.347 µM	0.383 µM	1.66 µM	1.09 µM	1.89 µM	0.348 µM	2.32 µM	1.83 µM	2.91 µM	0.396 µM
CCc1cc2c(cc1N1CCC(N3CCOCC3)CC1)C(C)(C)c1[nH]c3cc(C#N)ccc3c1C2=O	4.03 µM and 4.17 µM and 7.64 µM	6.37 µM and 7.16 µM and 8.45 µM	3.4 µM and 3.72 µM and 8.64 µM	3.54 µM and 1.23 µM and 4.84 µM	5.21 µM and 4.65 µM and 6.37 µM	9.06 µM and 13.2 µM and 3.68 µM	5.96 µM and 3.52 µM and 7.19 µM	4.88 µM and 5.56 µM and 4.22 µM	21.1 µM and 25.9 µM and > 10 µM	2.54 µM and 3.42 µM and > 10 µM	1.47 µM and 1.74 µM and 1.68 µM	1.95 µM and 2.21 µM and 1.64 µM	1.64 µM and 1.87 µM and 2.84 µM	0.386 µM and 0.179 µM and 0.576 µM	1.53 µM and 1.71 µM and 2.11 µM	2.56 µM and 2.95 µM and 1.61 µM	1.67 µM and 1.46 µM and 1.95 µM	1.21 µM and 1.51 µM and 0.53 µM	2.3 µM and 3.2 µM	0.758 µM and 0.853 µM and 1.51 µM
CCc1ccc2c(c1)N(CCO)C1=C(C(=O)OC1)C2c1cccc(Cl)c1 (centres undefined)	12.5 µM	2.63 µM	10.7 µM	27.8 µM	15.3 µM	15.5 µM	13.5 µM	32.2 µM	23.6 µM	11.1 µM	0.393 µM	0.522 µM	0.663 µM	12.7 µM	1.66 µM	0.382 µM	1.67 µM	1.37 µM	0.772 µM	0.345 µM
O=C(NO)c1ccc(Cn2c(=O)n(-c3ccccc3F)c(=O)c3ccccc32)cc1	10.4 µM	3.76 µM	4.87 µM	4.75 µM	7.89 µM	3.29 µM	> 100 µM	11.9 µM	3.22 µM	10.5 µM	1.9 µM	1.39 µM	1.96 µM	1.77 µM	3.03 µM	1.66 µM	2.09 µM	1.9 µM	1.25 µM	2.02 µM
CCN(CC)CCCC(C)N=c1cc(Nc2cc(=NC(C)CCCN(CC)CC)c3cc(OC)ccc3o2)oc2ccc(OC)cc12 (centres undefined)	2.15 µM	1.36 µM	4.13 µM	3.15 µM	1.88 µM	3.14 µM	3.19 µM	14.8 µM	1.67 µM	1.97 µM	0.679 µM	0.632 µM	1.31 µM	0.513 µM	0.666 µM	1.1 µM	1.17 µM	3.33 µM	0.872 µM	0.588 µM
C[C@H]1[C@H]2[C@H]3CC[C@@H]4[C@@]5(C)C/C(=C/c6cccnc6)C(=O)C(C)(C)[C@@H]5CC[C@@]4(C)[C@]3(C)CC[C@]23CO[C@]1(C)[C@@H](C(=O)/C=C\c1cccnc1)C3	1.94 µM	4.53 µM	> 50 µM	3.11 µM	8.01 µM	6.21 µM	1.71 µM	7.4 µM	9.85 µM	3.73 µM	0.929 µM	1.43 µM	5.9 µM	0.844 µM	1.27 µM	1.38 µM	0.923 µM	1.44 µM	1.74 µM	1.16 µM
CC1(C)CCC(C)(C)c2c1ccc(O)c2Cc1c(O)ccc2c1C(C)(C)CCC2(C)C	5.77 µM	4.44 µM	4.84 µM	3.7 µM	3.22 µM	4.99 µM	5.45 µM	8.85 µM	3.45 µM	4.4 µM	–	–	–	–	–	–	–	–	–	–
C/C(=C\COc1c2c(cc3c1CCO3)OC1(C=C2)OC(CC/C(C)=C/COc2c3ccoc3cc3oc(=O)ccc23)C(C)(C)O1)CCC(O)C(C)(C)O (centres undefined)	> 100 µM	> 100 µM	> 100 µM	> 100 µM	> 100 µM	> 100 µM	> 100 µM	> 100 µM	> 100 µM	> 100 µM	9.65 µM	23.1 µM	> 100 µM	7.56 µM	7.59 µM	9.09 µM	> 100 µM	27.3 µM	25.3 µM	22.4 µM
COc1ccc(OC)c(-c2cc(=O)c3c(OC)c(OC)c(OC)c(OC)c3o2)c1	> 100 µM	31.6 µM	98.7 µM	57.7 µM	> 100 µM	48.4 µM	> 100 µM	> 100 µM	> 100 µM	> 100 µM	–	–	–	–	–	–	–	–	–	–
COc1cc(-c2ncn(/C=C\C(=O)OC(C)C)n2)cc(C(F)(F)F)c1	11.1 µM and 1.4 µM	1.28 µM and 1.46 µM	16.9 µM and 15.1 µM	4.96 µM and 5.68 µM	4.81 µM and 7.12 µM	14.1 µM and 11.8 µM	12.5 µM and 11.7 µM	> 65.9 µM and 6.71 µM	11.8 µM and 14.4 µM	12.3 µM and 3.01 µM	0.0293 µM and 0.0327 µM	0.0432 µM and 0.0437 µM	0.357 µM and 0.179 µM	0.303 µM and 0.103 µM	0.065 µM and 0.0398 µM	0.0891 µM and 0.196 µM	0.238 µM and 0.2 µM	0.254 µM and 0.243 µM	0.142 µM and 0.136 µM	0.0474 µM and 0.0896 µM
O=C(Nc1nc2ccc(F)cc2s1)c1cccnc1Nc1ccc(Cl)cc1	> 100 µM	3.48 µM	> 26.5 µM	3.34 µM	5 µM	7.83 µM	> 100 µM	7.54 µM	–	> 100 µM	2.22 µM	1.72 µM	2.49 µM	0.575 µM	1.88 µM	1.98 µM	3.76 µM	2.1 µM	0.677 µM	3.1 µM
NC1=NCCN1CC(=O)O	> 10000 µM	> 10000 µM	> 10000 µM	> 10000 µM	> 10000 µM	> 10000 µM	> 10000 µM	> 10000 µM	> 10000 µM	> 10000 µM	> 10000 µM	> 10000 µM	> 10000 µM	> 10000 µM	> 10000 µM	–	> 10000 µM	> 1000 µM	> 10000 µM	> 10000 µM
Cc1cc(O)cc(C)c1/C=C/c1cncc(-c2nn[nH]n2)c1	> 25 µM	> 25 µM	> 25 µM	> 25 µM	> 25 µM	> 25 µM	> 25 µM	> 25 µM	> 25 µM	> 25 µM	> 25 µM	> 25 µM	> 25 µM	> 25 µM	> 25 µM	> 25 µM	> 25 µM	> 25 µM	> 25 µM	> 25 µM
Nc1c(C(=O)c2ccc(CCCN3CCOCC3)cc2)cnn1-c1ccc(F)cc1	> 25 µM	> 25 µM	> 25 µM	> 25 µM	> 25 µM	> 25 µM	> 25 µM	> 25 µM	> 25 µM	> 25 µM	> 25 µM	> 25 µM	> 25 µM	3.22 µM	> 25 µM	> 25 µM	> 25 µM	> 25 µM	24.3 µM	> 25 µM
O=S(=O)(Nc1cc(Cl)ccc1Cl)c1ccc(-c2cnc(C3CC3)o2)cc1	17.4 µM	13.4 µM	85.5 µM	8.42 µM	43 µM	10.3 µM	> 100 µM	24 µM	56.4 µM	13.5 µM	0.769 µM	1.84 µM	5.3 µM	1.21 µM	4.31 µM	0.406 µM	3.72 µM	0.701 µM	15 µM	0.654 µM
Cc1ncsc1-c1ccc(CNC(=O)[C@@H]2C[C@@H](O)CN2C(=O)[C@@H](NC(=O)C2(C#N)CC2)C(C)(C)C)cc1	> 100 µM	> 100 µM	> 100 µM	> 100 µM	> 100 µM	> 100 µM	> 100 µM	> 100 µM	> 100 µM	> 100 µM	> 100 µM	> 100 µM	> 100 µM	70.4 µM	> 100 µM	> 100 µM	> 100 µM	50.5 µM	> 100 µM	> 100 µM
O=C(CCC(C(=O)c1ccccc1)c1ccccc1)c1ccccc1 (centres undefined)	> 100 µM	> 100 µM	> 100 µM	72.2 µM	> 100 µM	> 100 µM	> 100 µM	> 100 µM	> 100 µM	> 100 µM	6.5 µM	8.8 µM	78.8 µM	3.4 µM	23.4 µM	6.83 µM	30.1 µM	11.8 µM	17.5 µM	4.21 µM
